This assay in a line: Photosensitizing ability was evaluated by the degradation of DPBF by singlet oxygen in DMSO solution at 27 degree Centigrade.
As for `CC(=O)OC[C@@H]1O[C@H](Oc2cc(O[C@@H]3O[C@H](COC(C)=O)[C@@H](OC(C)=O)[C@H](OC(C)=O)[C@H]3OC(C)=O)cc(-c3c4nc(c(-c5cc(O[C@H]6O[C@@H](COC(C)=O)[C@H](OC(C)=O)[C@@H](OC(C)=O)[C@@H]6OC(C)=O)cc(O[C@H]6O[C@@H](COC(C)=O)[C@H](OC(C)=O)[C@@H](OC(C)=O)[C@@H]6OC(C)=O)c5)c5ccc([nH]5)c(-c5cc(O[C@H]6O[C@@H](COC(C)=O)[C@H](OC(C)=O)[C@@H](OC(C)=O)[C@@H]6OC(C)=O)cc(O[C@@H]6O[C@H](COC(C)=O)[C@@H](OC(C)=O)[C@H](OC(C)=O)[C@H]6OC(C)=O)c5)c5ccc([nH]5)c(-c5cc(O[C@@H]6O[C@H](COC(C)=O)[C@@H](OC(C)=O)[C@H](OC(C)=O)[C@H]6OC(C)=O)cc(O[C@@H]6O[C@H](COC(C)=O)[C@@H](OC(C)=O)[C@H](OC(C)=O)[C@H]6OC(C)=O)c5)c5nc3CC5)C=C4)c2)[C@@H](OC(C)=O)[C@H](OC(C)=O)[C@H]1OC(C)=O`, the k obs was 0.011 s⁻¹.

Turning to `CC(=O)OC[C@@H]1O[C@H](Oc2ccc(-c3c4nc(c(-c5ccc(O[C@@H]6O[C@H](COC(C)=O)[C@@H](OC(C)=O)[C@H](OC(C)=O)[C@H]6OC(C)=O)cc5)c5nc(c(-c6ccc(O[C@@H]7O[C@H](COC(C)=O)[C@@H](OC(C)=O)[C@H](OC(C)=O)[C@H]7OC(C)=O)cc6)c6ccc([nH]6)c(-c6ccc(O[C@H]7O[C@@H](COC(C)=O)[C@H](OC(C)=O)[C@@H](OC(C)=O)[C@@H]7OC(C)=O)cc6)c6ccc3[nH]6)CC5)C=C4)cc2)[C@@H](OC(C)=O)[C@H](OC(C)=O)[C@H]1OC(C)=O`, the k obs stood at 0.012 s⁻¹. The figure for `CC(=O)OC[C@@H]1O[C@H](Oc2ccc(-c3c4nc(c(-c5ccc(O[C@@H]6O[C@H](COC(C)=O)[C@H](OC(C)=O)[C@H](OC(C)=O)[C@H]6OC(C)=O)cc5)c5nc(c(-c6ccc(O[C@@H]7O[C@H](COC(C)=O)[C@H](OC(C)=O)[C@H](OC(C)=O)[C@H]7OC(C)=O)cc6)c6ccc([nH]6)c(-c6ccc(O[C@H]7O[C@@H](COC(C)=O)[C@@H](OC(C)=O)[C@@H](OC(C)=O)[C@@H]7OC(C)=O)cc6)c6ccc3[nH]6)CC5)C=C4)cc2)[C@@H](OC(C)=O)[C@H](OC(C)=O)[C@@H]1OC(C)=O` is 0.0068 s⁻¹; for `OC[C@@H]1O[C@H](Oc2cc(O[C@H]3O[C@@H](CO)[C@H](O)[C@@H](O)[C@@H]3O)cc(-c3c4nc(c(-c5cc(O[C@@H]6O[C@H](CO)[C@@H](O)[C@H](O)[C@H]6O)cc(O[C@@H]6O[C@H](CO)[C@@H](O)[C@H](O)[C@H]6O)c5)c5nc(c(-c6cc(O[C@@H]7O[C@H](CO)[C@@H](O)[C@H](O)[C@H]7O)cc(O[C@@H]7O[C@H](CO)[C@@H](O)[C@H](O)[C@H]7O)c6)c6ccc([nH]6)c(-c6cc(O[C@@H]7O[C@H](CO)[C@@H](O)[C@H](O)[C@H]7O)cc(O[C@@H]7O[C@H](CO)[C@@H](O)[C@H](O)[C@H]7O)c6)c6ccc3[nH]6)CC5)C=C4)c2)[C@@H](O)[C@H](O)[C@H]1O` it is 0.011 s⁻¹; for `OC[C@@H]1O[C@H](Oc2ccc(-c3c4nc(c(-c5ccc(O[C@@H]6O[C@H](CO)[C@@H](O)[C@H](O)[C@H]6O)cc5)c5nc(c(-c6ccc(O[C@@H]7O[C@H](CO)[C@@H](O)[C@H](O)[C@H]7O)cc6)c6ccc([nH]6)c(-c6ccc(O[C@H]7O[C@@H](CO)[C@H](O)[C@@H](O)[C@@H]7O)cc6)c6ccc3[nH]6)CC5)C=C4)cc2)[C@@H](O)[C@H](O)[C@H]1O` it is 0.0094 s⁻¹.

For `OC[C@@H]1O[C@H](Oc2ccc(-c3c4nc(c(-c5ccc(O[C@@H]6O[C@H](CO)[C@H](O)[C@H](O)[C@H]6O)cc5)c5nc(c(-c6ccc(O[C@@H]7O[C@H](CO)[C@H](O)[C@H](O)[C@H]7O)cc6)c6ccc([nH]6)c(-c6ccc(O[C@H]7O[C@@H](CO)[C@@H](O)[C@@H](O)[C@@H]7O)cc6)c6ccc3[nH]6)CC5)C=C4)cc2)[C@@H](O)[C@H](O)[C@@H]1O`, the k obs was found to be 0.0062 s⁻¹.

For the origin of these results see ChEMBL document CHEMBL1130709, “Synthesis and phototoxic property of tetra- and octa-glycoconjugated tetraphenylchlorins” (Bioorg Med Chem Lett, 1998).
